Experimental data as given in publication PMC8284440, “Toward New Transmission-Blocking Combination Therapies: Pharmacokinetics of 10-Amino-Artemisinins and 11-Aza-Artemisinin and Comparison with Dihydroartemisinin and Artemether” (Antimicrobial Agents and Chemotherapy, 2021).

Experiment: Pharmacokinetics in mice, oral administration
Format: in vivo, male C57/BL6 mice
Conditions: male, C57/BL6, mouse, plasma, po, 50 mg/kg, oral bioavailability, p.o. 50 mg/kg vs i.v. 10 mg/kg
Experimental: (i) Animals. Healthy male C57/BL6 mice each weighing approximately 25 g were used. The mice maintained at the University of Cape Town animal facility were housed in 27 by 21 by 18 cm cages, under controlled environmental conditions at 22 ± 2°C and a 12-h light/dark cycle. Humidity was monitored and ranged between 55 and 70%. Food and water were available ad libitum. Mice were acclimatized to their environment for 7 days before experiments were initiated.
(ii) Oral drug administration. Each of artemether, the amino-artemisinins 5 to 10, and 11-aza-artemisinin 11 (12.5 mg) was dissolved in 0.2 ml DMSO, to which 1.8 ml 0.5% (wt/vol) HPMC in water was then added. Compounds were administered orally via gavage at a dose of 50 mg/kg (n = 3). Dosing volumes were calculated based on the weight of each mouse in the respective group. The dosing volumes ranged between 160 μl and 200 μl, ensuring that the dose remained at 50 mg/kg. Blood samples for amino-artemisinins 5 to 8 and 10 were collected via tail-bleeding predose and at 0.08, 0.25, 0.5, 1, 2, and 4 h. Blood samples for the phenylurea 9 and 11-aza-artemisinin 11 were collected at 0.08, 0.5, 1, 2, 4, 8, and 24 h postdose. Samples were placed in 0.5 ml lithium heparin micro vials to prevent blood coagulation. […] The samples were immediately centrifuged at 5,590 × g for 5 min and the plasma was transferred to new microvials. The plasma samples were stored at −80°C.
(§1) Sample extraction. […] The organic layer was then transferred and evaporated under a gentle stream of nitrogen at room temperature for 30 min. The dried samples were reconstituted in mobile phase, and a 5 μl sample was injected for LC-MS/MS analysis. The only exception was the arylurea 10, for which no liquid-liquid extraction was conducted; instead, the 200 μl acetonitrile solution was evaporated under a gentle stream of nitrogen at room temperature. The dried sample was reconstituted in the mobile phase, and a 5 μl sample was injected for LC-MS/MS analysis. The plasma samples for each compound from the in vivo studies were extracted by mixing 350 μl ethyl acetate with 15 μl of plasma sample and 35 μl of universal buffer containing internal standard at pH 8. The samples were vortexed for 1 min and centrifuged for 5 min, and the organic layer was then transferred and evaporated under a gentle stream of nitrogen at room temperature for 30 min. The dried samples were each reconstituted in the mobile phase, and a 5 μl sample was injected for LC-MS/MS analysis.
(§2) LC-MS/MS analysis. For all the artemisinins except the arylurea 10, gradient chromatography was performed on a Phenomenex (Torrance, CA, USA) Luna PFP(2) analytical column (100 Å, 5 μm, 2 by 50 mm) and an AB Sciex API 5500 mass spectrometer which was operated at unit resolution in the multiple reaction monitoring (MRM) mode. The HPLC method used was a gradient method with 5 mM ammonium acetate and 0.1% acetic acid in water as the aqueous phase and a mixture of acetonitrile and methanol (1:1 vol/vol) containing 5% of the aqueous phase as the organic phase ([89]). The arylurea 10 was analyzed using a Phenomenex Gemini NX-C18 (5 μm, 2.1 mm by 50 mm) column with an AB Sciex 3200 QTRAP mass spectrometer operated at unit resolution in the MRM mode. The HPLC method used was a gradient method with 5 mM ammonium acetate and 0.1% acetic acid in water as the aqueous phase and a mixture of acetonitrile and methanol (1:1 vol/vol). The transitions of the molecular ions were monitored, as listed in Table S8 in the supporting information. The calibration range was between 0.002 μg/ml and 6.250 μg/ml.

| SMILES | bioavailability [%] |
| --- | --- |
| CO[C@H]1O[C@@H]2O[C@@]3(C)CC[C@H]4[C@H](C)CC[C@@H]([C@H]1C)[C@@]24OO3 [Artemether 3, artemether] | 2 ± 0.6 |
| C[C@H]1[C@H](NS(N)(=O)=O)O[C@@H]2O[C@@]3(C)CC[C@H]4[C@H](C)CC[C@@H]1[C@@]24OO3 [Sulfamide 7] | 59 |

Same assay, conditions: male, C57/BL6, mouse, plasma, po; p.o. 50 mg/kg, parent

| SMILES | Cmax [µM] | Tmax [min] |
| --- | --- | --- |
| CO[C@H]1O[C@@H]2O[C@@]3(C)CC[C@H]4[C@H](C)CC[C@@H]([C@H]1C)[C@@]24OO3 [Artemether 3, artemether] | 0.6 ± 0.2 | 6 |
| C[C@H]1[C@H](NS(N)(=O)=O)O[C@@H]2O[C@@]3(C)CC[C@H]4[C@H](C)CC[C@@H]1[C@@]24OO3 [Sulfamide 7] | 21.7 ± 1.2 | 36 ± 12 |

Same assay, conditions: metabolite formed from p.o. artemether 3, 50 mg/kg

| SMILES | AUC of metabolite [min/µmol/L] |
| --- | --- |
| C[C@H]1[C@@H](O)O[C@@H]2O[C@@]3(C)CC[C@H]4[C@H](C)CC[C@@H]1[C@@]24OO3 [DHA 2, dihydroartemisinin] | 77 ± 12 |

Same assay, conditions: metabolite formed from p.o. artemiside 5, 50 mg/kg

| SMILES | AUC of metabolite [min/µmol/L] |
| --- | --- |
| C[C@H]1[C@H](N2C=CS(=O)(=O)CC2)O[C@@H]2O[C@@]3(C)CC[C@H]4[C@H](C)CC[C@@H]1[C@@]24OO3 [M1 12] | 20.8 ± 8 |

Same assay, conditions: metabolite formed from p.o. artemisone 6, 50 mg/kg

| SMILES | AUC of metabolite [min/µmol/L] |
| --- | --- |
| C[C@H]1[C@H](N2C=CS(=O)(=O)CC2)O[C@@H]2O[C@@]3(C)CC[C@H]4[C@H](C)CC[C@@H]1[C@@]24OO3 [M1 12] | 173.3 ± 51.7 |

Same assay, conditions: oral bioavailability, p.o. 50 mg/kg vs i.v. 10 mg/kg

| SMILES | F [%] |
| --- | --- |
| C[C@H]1[C@H](NS(N)(=O)=O)O[C@@H]2O[C@@]3(C)CC[C@H]4[C@H](C)CC[C@@H]1[C@@]24OO3 [Sulfamide 7] | 59.3 ± 11.6 |

Same assay, conditions: p.o. 50 mg/kg, 0 h to last, parent

| SMILES | AUC |
| --- | --- |
| CO[C@H]1O[C@@H]2O[C@@]3(C)CC[C@H]4[C@H](C)CC[C@@H]([C@H]1C)[C@@]24OO3 [Artemether 3, artemether] | 32.3 ± 20 min/µmol/L |
| C[C@H]1[C@H](NS(N)(=O)=O)O[C@@H]2O[C@@]3(C)CC[C@H]4[C@H](C)CC[C@@H]1[C@@]24OO3 [Sulfamide 7] | 2,562.3 ± 499 min/μmol/liter |

Experiment: Metabolic stability in mouse liver microsomes
Format: in vitro ADME
Set-up: half-life / CLint scaled: dose or concentration left out as unconfirmed
Conditions: not given
Experimental: (ii) Metabolic stability in liver microsomes. The metabolic stability assay was performed in duplicate using 96-deepwell plates. Each compound (0.4 mM) was incubated individually in mouse, rat, and pooled human liver microsomes (0.4 mg/ml) at 37°C in the presence and absence of the cofactor NADPH (1 mM). An aliquot was taken at 0, 5, 10, 30, and 60 min, and the reaction was quenched by adding 300 μl of ice-cold acetonitrile containing the internal standard carbamazepine (0.0236 μg/ml) ([88]). The test compounds in the supernatant were analyzed by means of LC-MS/MS as described in “Sample analysis” below. The normalized data for each sample were used to calculate the in vitro half-life, intrinsic clearance rate, and hepatic extraction ratio from the results of this assay using the following equations ([88]).Equation 1. Normalized area. (1) Normalized area=(Peak area of sample at time point/Peak area of internal standard) Equation 2. Percent parent remaining. (2) % Parent=Normalized peak area of sample at time point/Normalized peak area of sample at t=0×100 Equation 3. Calculated t1/2. (3) t1/2=−0.693/λ where λ is the slope of the ln (% parent remaining) versus time curve of the compound.Equation 4. CLint. (4) CLint=[0.693/t1/2(min)]×[Volume of incubation (μl)/Microsomal protein (μg)] Equation 5. Hepatic extraction ratio. (5) EH=fu×CLint/QH + fu×CLint
as §1
as §2, with “μg/ml. Data acquisition and evaluation were performed using Analyst 1.6.2 software (Applied Biosystems, Foster City, CA, USA). The formation of the putative metabolite DHA from the amino-artemisinins and the metabolite M1 of artemisone were evaluated in these mice PK studies; the MRM transitions of DHA and M1 (Table S8) were thus included in the LC-MS/MS assays.” for “μg/ml.”

| SMILES | Hepatic extraction ratio EH Mouse |
| --- | --- |
| C[C@H]1[C@@H](O)O[C@@H]2O[C@@]3(C)CC[C@H]4[C@H](C)CC[C@@H]1[C@@]24OO3 [DHA 2, dihydroartemisinin] | 0.4 |
| C[C@H]1[C@H](N2C=CS(=O)(=O)CC2)O[C@@H]2O[C@@]3(C)CC[C@H]4[C@H](C)CC[C@@H]1[C@@]24OO3 [M1 12] | 0.3 |
| CO[C@H]1O[C@@H]2O[C@@]3(C)CC[C@H]4[C@H](C)CC[C@@H]([C@H]1C)[C@@]24OO3 [Artemether 3, artemether] | 0.8 |
| C[C@H]1[C@H](NS(N)(=O)=O)O[C@@H]2O[C@@]3(C)CC[C@H]4[C@H](C)CC[C@@H]1[C@@]24OO3 [Sulfamide 7] | 0.3 |

Same assay, conditions: calculated, read-out: Intrinsic liver clearance rate CLint Mouse

| SMILES | CLint scaled [mL/min/kg] |
| --- | --- |
| C[C@H]1[C@@H](O)O[C@@H]2O[C@@]3(C)CC[C@H]4[C@H](C)CC[C@@H]1[C@@]24OO3 [DHA 2, dihydroartemisinin] | 50.2 |
| C[C@H]1[C@H](N2C=CS(=O)(=O)CC2)O[C@@H]2O[C@@]3(C)CC[C@H]4[C@H](C)CC[C@@H]1[C@@]24OO3 [M1 12] | 37.4 |
| CO[C@H]1O[C@@H]2O[C@@]3(C)CC[C@H]4[C@H](C)CC[C@@H]([C@H]1C)[C@@]24OO3 [Artemether 3, artemether] | 393 |
| C[C@H]1[C@H](NS(N)(=O)=O)O[C@@H]2O[C@@]3(C)CC[C@H]4[C@H](C)CC[C@@H]1[C@@]24OO3 [Sulfamide 7] | 41.3 |

Same assay, conditions: read-out: Microsomal half-life t1/2 Mouse

| SMILES | half-life [min] |
| --- | --- |
| C[C@H]1[C@@H](O)O[C@@H]2O[C@@]3(C)CC[C@H]4[C@H](C)CC[C@@H]1[C@@]24OO3 [DHA 2, dihydroartemisinin] | 136 |
| C[C@H]1[C@H](N2C=CS(=O)(=O)CC2)O[C@@H]2O[C@@]3(C)CC[C@H]4[C@H](C)CC[C@@H]1[C@@]24OO3 [M1 12] | > 150 |
| CO[C@H]1O[C@@H]2O[C@@]3(C)CC[C@H]4[C@H](C)CC[C@@H]([C@H]1C)[C@@]24OO3 [Artemether 3, artemether] | 17.4 |
| C[C@H]1[C@H](NS(N)(=O)=O)O[C@@H]2O[C@@]3(C)CC[C@H]4[C@H](C)CC[C@@H]1[C@@]24OO3 [Sulfamide 7] | > 150 |
